Laboratory results taken from PubChem BioAssay (NCI).
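Interpolation was linear, between the two tested concentrations surrounding the appropriate level; five concentrations were tested over 48 hours in 96-well plates. TGI: concentration producing complete growth inhibition.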

Legend:
Assay in all cases: growth of human tumour cells (NCI), 48 h
786-0 renal = system: 786-0 renal
A549 NSCLC = system: A549 NSCLC
ACHN renal = system: ACHN renal
BT-549 breast = system: BT-549 breast
CAKI-1 renal = system: CAKI-1 renal
COLO 205 colon = system: COLO 205 colon
DU-145 prostate = system: DU-145 prostate
EKVX NSCLC = system: EKVX NSCLC
HCC-2998 colon = system: HCC-2998 colon
HCT-116 colon = system: HCT-116 colon
HCT-15 colon = system: HCT-15 colon
HOP-62 NSCLC = system: HOP-62 NSCLC
HS 578T breast = system: HS 578T breast
HT29 colon = system: HT29 colon
IGROV1 ovarian = system: IGROV1 ovarian
K-562 leukemia = system: K-562 leukemia
KM12 colon = system: KM12 colon
LOX IMVI melanoma = system: LOX IMVI melanoma
M14 melanoma = system: M14 melanoma
MALME-3M melanoma = system: MALME-3M melanoma
MCF7 breast = system: MCF7 breast
MDA-MB-231 breast = system: MDA-MB-231 breast
MDA-MB-435 = system: MDA-MB-435
MDA-N = system: MDA-N
MOLT-4 leukemia = system: MOLT-4 leukemia
NCI-H226 lung = system: NCI-H226 lung
NCI-H23 lung = system: NCI-H23 lung
NCI-H460 lung = system: NCI-H460 lung
NCI-H522 lung = system: NCI-H522 lung
NCI/ADR-RES ovarian = system: NCI/ADR-RES ovarian
OVCAR-3 ovarian = system: OVCAR-3 ovarian
OVCAR-4 ovarian = system: OVCAR-4 ovarian
OVCAR-5 ovarian = system: OVCAR-5 ovarian
OVCAR-8 ovarian = system: OVCAR-8 ovarian
PC-3 prostate = system: PC-3 prostate
RPMI-8226 leukemia = system: RPMI-8226 leukemia
RXF 393 renal = system: RXF 393 renal
SF-268 CNS = system: SF-268 CNS
SF-295 CNS = system: SF-295 CNS
SF-539 CNS = system: SF-539 CNS
SK-MEL-2 melanoma = system: SK-MEL-2 melanoma
SK-MEL-28 melanoma = system: SK-MEL-28 melanoma
SK-MEL-5 melanoma = system: SK-MEL-5 melanoma
SK-OV-3 ovarian = system: SK-OV-3 ovarian
SN12C renal = system: SN12C renal
SNB-19 CNS = system: SNB-19 CNS
SNB-75 CNS = system: SNB-75 CNS
SR leukemia = system: SR leukemia
SW-620 colon = system: SW-620 colon
T-47D breast = system: T-47D breast
TK-10 renal = system: TK-10 renal
U251 CNS = system: U251 CNS
UACC-257 melanoma = system: UACC-257 melanoma
UACC-62 melanoma = system: UACC-62 melanoma
UO-31 renal = system: UO-31 renal
A498 renal = system: A498 renal
CCRF-CEM leukemia = system: CCRF-CEM leukemia
HL-60(TB) leukemia = system: HL-60(TB) leukemia
HOP-92 NSCLC = system: HOP-92 NSCLC

SMILES: O=C1c2ccccc2-c2c1c1ccccc1c(=O)n2-c1cccnc1
- TGI (786-0 renal): 44.7 µM
- TGI (A549 NSCLC): > 100 µM
- TGI (ACHN renal): > 100 µM
- TGI (BT-549 breast): > 100 µM
- TGI (CAKI-1 renal): > 100 µM
- TGI (COLO 205 colon): > 100 µM
- TGI (DU-145 prostate): > 100 µM
- TGI (EKVX NSCLC): > 100 µM
- TGI (HCC-2998 colon): > 100 µM
- TGI (HCT-116 colon): > 100 µM
- TGI (HCT-15 colon): > 100 µM
- TGI (HOP-62 NSCLC): 41.8 µM
- TGI (HS 578T breast): > 100 µM
- TGI (HT29 colon): > 100 µM
- TGI (IGROV1 ovarian): > 100 µM
- TGI (K-562 leukemia): > 100 µM
- TGI (KM12 colon): > 100 µM
- TGI (LOX IMVI melanoma): > 100 µM
- TGI (M14 melanoma): > 100 µM
- TGI (MALME-3M melanoma): > 100 µM
- TGI (MCF7 breast): > 100 µM
- TGI (MDA-MB-231 breast): > 100 µM
- TGI (MDA-MB-435): > 100 µM
- TGI (MDA-N): > 100 µM
- TGI (MOLT-4 leukemia): > 28.4 µM
- TGI (NCI-H226 lung): > 100 µM
- TGI (NCI-H23 lung): > 100 µM
- TGI (NCI-H460 lung): > 100 µM
- TGI (NCI-H522 lung): 39.3 µM
- TGI (NCI/ADR-RES ovarian): > 100 µM
- TGI (OVCAR-3 ovarian): > 100 µM
- TGI (OVCAR-4 ovarian): > 100 µM
- TGI (OVCAR-5 ovarian): > 100 µM
- TGI (OVCAR-8 ovarian): > 100 µM
- TGI (PC-3 prostate): > 100 µM
- TGI (RPMI-8226 leukemia): > 100 µM
- TGI (RXF 393 renal): > 100 µM
- TGI (SF-268 CNS): > 100 µM
- TGI (SF-295 CNS): > 100 µM
- TGI (SF-539 CNS): > 71.1 µM
- TGI (SK-MEL-2 melanoma): > 100 µM
- TGI (SK-MEL-28 melanoma): > 100 µM
- TGI (SK-MEL-5 melanoma): > 100 µM
- TGI (SK-OV-3 ovarian): > 100 µM
- TGI (SN12C renal): > 100 µM
- TGI (SNB-19 CNS): > 100 µM
- TGI (SNB-75 CNS): > 100 µM
- TGI (SR leukemia): > 100 µM
- TGI (SW-620 colon): > 100 µM
- TGI (T-47D breast): > 100 µM
- TGI (TK-10 renal): > 100 µM
- TGI (U251 CNS): > 100 µM
- TGI (UACC-257 melanoma): > 100 µM
- TGI (UACC-62 melanoma): > 85.8 µM
- TGI (UO-31 renal): > 100 µM

SMILES: COC1(OC)C[C@H](C)[C@@]23O[C@]24C2=CC(=O)C=CC2=N[C@H]3C#C/C=C\C#C[C@]14O
- TGI (786-0 renal): 0.574 µM
- TGI (A498 renal): 2.11 µM
- TGI (A549 NSCLC): 1.78 µM
- TGI (ACHN renal): 0.965 µM
- TGI (BT-549 breast): 2.2 µM
- TGI (CAKI-1 renal): 1.4 µM
- TGI (CCRF-CEM leukemia): 0.811 µM
- TGI (COLO 205 colon): 2.14 µM
- TGI (DU-145 prostate): 2.24 µM
- TGI (EKVX NSCLC): 2.21 µM
- TGI (HCC-2998 colon): 2.13 µM
- TGI (HCT-116 colon): 1.35 µM
- TGI (HL-60(TB) leukemia): 0.318 µM
- TGI (HOP-62 NSCLC): 2.25 µM
- TGI (HOP-92 NSCLC): 1.8 µM
- TGI (HS 578T breast): 5.09 µM
- TGI (HT29 colon): 1.25 µM
- TGI (IGROV1 ovarian): 2.37 µM
- TGI (KM12 colon): 1.88 µM
- TGI (M14 melanoma): 1.82 µM
- TGI (MALME-3M melanoma): 2.1 µM
- TGI (MCF7 breast): 1.4 µM
- TGI (MDA-MB-231 breast): 2.06 µM
- TGI (MDA-MB-435): 1.7 µM
- TGI (MDA-N): 2.28 µM
- TGI (MOLT-4 leukemia): 0.106 µM
- TGI (NCI-H226 lung): 2.6 µM
- TGI (NCI-H23 lung): 2.05 µM
- TGI (NCI-H460 lung): 1.42 µM
- TGI (NCI/ADR-RES ovarian): 36.1 µM
- TGI (OVCAR-3 ovarian): 1.93 µM
- TGI (OVCAR-4 ovarian): 1.74 µM
- TGI (OVCAR-5 ovarian): 1.8 µM
- TGI (PC-3 prostate): 2.09 µM
- TGI (RPMI-8226 leukemia): 0.56 µM
- TGI (RXF 393 renal): 2.49 µM
- TGI (SF-268 CNS): 12.2 µM
- TGI (SF-295 CNS): 6.65 µM
- TGI (SF-539 CNS): 1.93 µM
- TGI (SK-MEL-2 melanoma): 3.58 µM
- TGI (SK-MEL-28 melanoma): 2.51 µM
- TGI (SK-MEL-5 melanoma): 1.56 µM
- TGI (SK-OV-3 ovarian): 2.89 µM
- TGI (SNB-19 CNS): 3.02 µM
- TGI (SNB-75 CNS): 1.58 µM
- TGI (SR leukemia): 0.4 µM
- TGI (SW-620 colon): 3.42 µM
- TGI (T-47D breast): 2.56 µM
- TGI (TK-10 renal): 2.1 µM
- TGI (U251 CNS): 1.82 µM
- TGI (UACC-257 melanoma): 5.16 µM
- TGI (UACC-62 melanoma): 2.93 µM
- TGI (UO-31 renal): 1.76 µM

SMILES: S=C(Nc1c2c(nc3ccccc13)CCCC2)Nc1c2c(nc3ccccc13)CCCC2
- TGI (786-0 renal): > 100 µM
- TGI (A498 renal): > 100 µM
- TGI (A549 NSCLC): > 100 µM
- TGI (ACHN renal): > 100 µM
- TGI (BT-549 breast): > 100 µM
- TGI (CAKI-1 renal): > 100 µM
- TGI (CCRF-CEM leukemia): > 100 µM
- TGI (COLO 205 colon): > 100 µM
- TGI (DU-145 prostate): > 100 µM
- TGI (EKVX NSCLC): > 100 µM
- TGI (HCC-2998 colon): > 100 µM
- TGI (HCT-116 colon): > 100 µM
- TGI (HCT-15 colon): > 100 µM
- TGI (HOP-62 NSCLC): > 100 µM
- TGI (HS 578T breast): > 100 µM
- TGI (HT29 colon): > 100 µM
- TGI (IGROV1 ovarian): > 100 µM
- TGI (K-562 leukemia): > 100 µM
- TGI (KM12 colon): > 100 µM
- TGI (M14 melanoma): > 100 µM
- TGI (MALME-3M melanoma): > 100 µM
- TGI (MCF7 breast): > 100 µM
- TGI (MDA-MB-231 breast): > 100 µM
- TGI (MDA-MB-435): > 100 µM
- TGI (MDA-N): > 100 µM
- TGI (MOLT-4 leukemia): > 100 µM
- TGI (NCI-H226 lung): > 100 µM
- TGI (NCI-H23 lung): > 100 µM
- TGI (NCI-H460 lung): > 100 µM
- TGI (NCI-H522 lung): > 100 µM
- TGI (NCI/ADR-RES ovarian): > 100 µM
- TGI (OVCAR-3 ovarian): > 100 µM
- TGI (OVCAR-4 ovarian): > 100 µM
- TGI (OVCAR-5 ovarian): > 100 µM
- TGI (OVCAR-8 ovarian): > 100 µM
- TGI (PC-3 prostate): > 100 µM
- TGI (RPMI-8226 leukemia): > 100 µM
- TGI (RXF 393 renal): > 100 µM
- TGI (SF-268 CNS): > 100 µM
- TGI (SF-295 CNS): > 100 µM
- TGI (SK-MEL-2 melanoma): > 100 µM
- TGI (SK-MEL-28 melanoma): > 100 µM
- TGI (SK-MEL-5 melanoma): > 100 µM
- TGI (SK-OV-3 ovarian): > 100 µM
- TGI (SN12C renal): > 100 µM
- TGI (SNB-19 CNS): > 100 µM
- TGI (SNB-75 CNS): > 100 µM
- TGI (SR leukemia): > 100 µM
- TGI (SW-620 colon): > 100 µM
- TGI (T-47D breast): > 100 µM
- TGI (TK-10 renal): > 100 µM
- TGI (U251 CNS): > 100 µM
- TGI (UACC-257 melanoma): > 100 µM
- TGI (UACC-62 melanoma): > 100 µM
- TGI (UO-31 renal): > 100 µM
